In brackets after ≈: the same amount, converted by molar mass.
How the values were obtained:
Format in all cases: functional
Bacillus subtilis [1] = assay: Antimicrobial activity against Bacillus subtilis ATCC 6633 assessed as inhibition of microbial growth incubated for 24 hrs by broth dilution method
Staphylococcus aureus [2] = assay: Antimicrobial activity against Staphylococcus aureus ATCC 25923 assessed as inhibition of microbial growth incubated for 24 hrs by broth dilution method
Escherichia coli [3] = assay: Antimicrobial activity against Escherichia coli ATCC 10536 assessed as inhibition of microbial growth incubated for 24 hrs by broth dilution method
Pseudomonas aeruginosa [4] = assay: Antimicrobial activity against Pseudomonas aeruginosa ATCC 10145 assessed as inhibition of microbial growth incubated for 24 hrs by broth dilution method
Klebsiella pneumoniae = assay: Antimicrobial activity against Klebsiella pneumoniae ATCC 10031 assessed as inhibition of microbial growth incubated for 24 hrs by broth dilution method
Candida albicans = assay: Antimicrobial activity against Candida albicans ATCC 10231 assessed as inhibition of microbial growth incubated for 72 hrs by broth dilution method; settings: ATCC 10231, 72 h
Candida tropicalis = assay: Antimicrobial activity against Candida tropicalis ATCC 750 assessed as inhibition of microbial growth incubated for 72 hrs by broth dilution method; settings: ATCC 750, 72 h
Bacillus subtilis [5] = assay: Bactericidal activity against Bacillus subtilis ATCC 6633 assessed as microbial killing during 18 hrs post sub-culture onto drug-free solid media by broth dilution method; settings: ATCC 6633, 18 h, read-out: MBC99.9
Staphylococcus aureus [6] = assay: Bactericidal activity against Staphylococcus aureus ATCC 25923 assessed as microbial killing during 18 hrs post sub-culture onto drug-free solid media by broth dilution method; settings: ATCC 25923, 18 h, read-out: MBC99.9
Escherichia coli [7] = assay: Bactericidal activity against Escherichia coli ATCC 10536 assessed as microbial killing during 18 hrs post sub-culture onto drug-free solid media by broth dilution method; settings: ATCC 10536, 18 h, read-out: MBC99.9
Pseudomonas aeruginosa [8] = assay: Bactericidal activity against Pseudomonas aeruginosa ATCC 10145 assessed as microbial killing during 18 hrs post sub-culture onto drug-free solid media by broth dilution method; settings: ATCC 10145, 18 h, read-out: MBC99.9

| Molecule | MIC (Bacillus subtilis [1]; ATCC 6633, 24 h) | MIC (Staphylococcus aureus [2]; ATCC 25923, 24 h) | MIC (Escherichia coli [3]; ATCC 10536, 24 h) | MIC (Pseudomonas aeruginosa [4]; ATCC 10145, 24 h) | MIC (Klebsiella pneumoniae; ATCC 10031, 24 h) | MIC (Candida albicans) | MIC (Candida tropicalis) | MBC (Bacillus subtilis [5]) | MBC (Staphylococcus aureus [6]) | MBC (Escherichia coli [7]) | MBC (Pseudomonas aeruginosa [8]) | MIC (Bacillus subtilis [1]) | MIC (Staphylococcus aureus [2]) | MIC (Escherichia coli [3]) | MIC (Pseudomonas aeruginosa [4]) | MIC (Klebsiella pneumoniae) |
| --- | --- | --- | --- | --- | --- | --- | --- | --- | --- | --- | --- | --- | --- | --- | --- | --- |
| O=c1c(O)c(-c2ccccc2O)oc2ccc(Br)cc12 | 0.167 µM | 0.152 µM | 0.135 µM | 0.12 µM | 0.135 µM | > 0.602 µM | > 0.602 µM | – | – | – | – | – | – | – | – | – |
| O=c1c2c(oc3ccccc13)-c1ccccc1OCCCCO2 | 0.064 µM | 0.097 µM | 0.146 µM | 0.113 µM | 0.064 µM | > 0.649 µM | > 0.649 µM | 0.064 µM (≈ 0.0197 µg/mL) | 0.059 µM (≈ 0.0182 µg/mL) | 0.072 µM (≈ 0.0222 µg/mL) | 0.082 µM (≈ 0.0253 µg/mL) | – | – | – | – | – |
| O=c1c2c(oc3ccc(Cl)cc13)-c1ccccc1OCCO2 | 0.065 µM | 0.033 µM | 0.047 µM | 0.063 µM | 0.047 µM | > 0.636 µM | > 0.636 µM | 0.035 µM (≈ 0.011 µg/mL) | 0.033 µM (≈ 0.0104 µg/mL) | 0.027 µM (≈ 0.0085 µg/mL) | 0.063 µM (≈ 0.0198 µg/mL) | – | – | – | – | – |
| O=c1c2c(oc3ccc(Br)cc13)-c1ccccc1OCCCO2 | 0.04 µM | 0.053 µM | 0.032 µM | 0.04 µM | 0.026 µM | > 0.537 µM | > 0.537 µM | 0.025 µM (≈ 0.00933 µg/mL) | 0.025 µM (≈ 0.00933 µg/mL) | 0.027 µM (≈ 0.0101 µg/mL) | 0.037 µM (≈ 0.0138 µg/mL) | – | – | – | – | – |
| O=c1c2c(oc3ccc(Br)cc13)-c1ccccc1OCCCCCO2 | 0.063 µM | 0.051 µM | 0.025 µM | 0.062 µM | 0.037 µM | > 0.5 µM | > 0.5 µM | 0.035 µM (≈ 0.014 µg/mL) | 0.04 µM (≈ 0.0161 µg/mL) | 0.02 µM (≈ 0.00803 µg/mL) | 0.05 µM (≈ 0.0201 µg/mL) | – | – | – | – | – |
| O=c1c2c(oc3ccccc13)-c1ccccc1OCCO2 | 0.071 µM | 0.142 µM | 0.108 µM | 0.125 µM | 0.107 µM | > 0.714 µM | > 0.714 µM | 0.071 µM (≈ 0.0199 µg/mL) | 0.142 µM (≈ 0.0398 µg/mL) | 0.085 µM (≈ 0.0238 µg/mL) | 0.071 µM (≈ 0.0199 µg/mL) | – | – | – | – | – |
| O=c1c2c(oc3ccc(Cl)cc13)-c1ccccc1OCCCCCO2 | 0.028 µM | 0.14 µM | 0.057 µM | 0.07 µM | 0.028 µM | > 0.561 µM | > 0.561 µM | 0.014 µM (≈ 0.005 µg/mL) | 0.088 µM (≈ 0.0314 µg/mL) | 0.034 µM (≈ 0.0121 µg/mL) | 0.028 µM (≈ 0.00999 µg/mL) | – | – | – | – | – |
| O=c1c(O)c(-c2ccccc2O)oc2ccc(F)cc12 | 0.167 µM | 0.259 µM | 0.22 µM | 0.275 µM | 0.202 µM | > 0.735 µM | > 0.735 µM | – | – | – | – | – | – | – | – | – |
| O=c1c2c(oc3ccc(Cl)cc13)-c1ccccc1OCCCCO2 | 0.073 µM | 0.204 µM | 0.029 µM | 0.146 µM | 0.146 µM | > 0.584 µM | > 0.584 µM | 0.024 µM (≈ 0.00823 µg/mL) | 0.154 µM (≈ 0.0528 µg/mL) | 0.028 µM (≈ 0.0096 µg/mL) | 0.058 µM (≈ 0.0199 µg/mL) | – | – | – | – | – |
| O=c1c2c(oc3ccc(F)cc13)-c1ccccc1OCCCO2 | 0.081 µM | 0.129 µM | 0.16 µM | 0.064 µM | 0.112 µM | > 0.641 µM | > 0.641 µM | 0.032 µM (≈ 0.00999 µg/mL) | 0.116 µM (≈ 0.0362 µg/mL) | 0.096 µM (≈ 0.03 µg/mL) | 0.032 µM (≈ 0.00999 µg/mL) | – | – | – | – | – |
| O=c1c2c(oc3ccc(F)cc13)-c1ccccc1OCCCCO2 | 0.092 µM | 0.153 µM | 0.062 µM | 0.076 µM | 0.046 µM | > 0.613 µM | > 0.613 µM | 0.04 µM (≈ 0.0131 µg/mL) | 0.081 µM (≈ 0.0264 µg/mL) | 0.055 µM (≈ 0.0179 µg/mL) | 0.03 µM (≈ 0.00979 µg/mL) | – | – | – | – | – |
| OC(Cn1cncn1)(Cn1cncn1)c1ccc(F)cc1F [FLUCONAZOLE] | – | – | – | – | – | ≤ 0.033 µM | ≤ 0.033 µM | – | – | – | – | – | – | – | – | – |
| O=c1c2c(oc3ccc(F)cc13)-c1ccccc1OCCCCCO2 | 0.117 µM | 0.132 µM | 0.102 µM | 0.073 µM | 0.088 µM | > 0.588 µM | > 0.588 µM | 0.039 µM (≈ 0.0133 µg/mL) | 0.11 µM (≈ 0.0374 µg/mL) | 0.074 µM (≈ 0.0252 µg/mL) | 0.035 µM (≈ 0.0119 µg/mL) | – | – | – | – | – |
| O=c1c2c(oc3ccccc13)-c1ccccc1OCCCO2 | 0.085 µM | 0.272 µM | 0.051 µM | 0.136 µM | 0.102 µM | > 0.68 µM | > 0.68 µM | 0.034 µM (≈ 0.01 µg/mL) | 0.136 µM (≈ 0.04 µg/mL) | 0.052 µM (≈ 0.0153 µg/mL) | 0.084 µM (≈ 0.0247 µg/mL) | – | – | – | – | – |
| O=c1c2c(oc3ccc(Br)cc13)-c1ccccc1OCCCCO2 | 0.066 µM | 0.079 µM | 0.038 µM | 0.051 µM | 0.09 µM | > 0.518 µM | > 0.518 µM | 0.053 µM (≈ 0.0205 µg/mL) | 0.024 µM (≈ 0.00929 µg/mL) | 0.027 µM (≈ 0.0105 µg/mL) | 0.024 µM (≈ 0.00929 µg/mL) | – | – | – | – | – |
| GENTAMICIN SULFATE | – | – | – | – | – | – | – | – | – | – | – | < 0.017 µM | < 0.017 µM | < 0.017 µM | < 0.017 µM | < 0.017 µM |
| O=c1c2c(oc3ccc(Br)cc13)-c1ccccc1OCCO2 | 0.027 µM | 0.027 µM | 0.097 µM | 0.097 µM | 0.083 µM | > 0.558 µM | > 0.558 µM | 0.023 µM (≈ 0.00826 µg/mL) | 0.023 µM (≈ 0.00826 µg/mL) | 0.061 µM (≈ 0.0219 µg/mL) | 0.061 µM (≈ 0.0219 µg/mL) | – | – | – | – | – |
| O=c1c(O)c(-c2ccccc2O)oc2ccccc12 | 0.218 µM | 0.198 µM | 0.177 µM | 0.157 µM | 0.177 µM | > 0.787 µM | > 0.787 µM | – | – | – | – | – | – | – | – | – |
| O=c1c2c(oc3ccc(F)cc13)-c1ccccc1OCCO2 | 0.117 µM | 0.134 µM | 0.167 µM | 0.1 µM | 0.117 µM | > 0.671 µM | > 0.671 µM | 0.073 µM (≈ 0.0218 µg/mL) | 0.093 µM (≈ 0.0277 µg/mL) | 0.096 µM (≈ 0.0286 µg/mL) | 0.033 µM (≈ 0.00984 µg/mL) | – | – | – | – | – |
| O=c1c(O)c(-c2ccccc2O)oc2ccc(Cl)cc12 | 0.173 µM | 0.19 µM | 0.14 µM | 0.157 µM | 0.138 µM | > 0.694 µM | > 0.694 µM | – | – | – | – | – | – | – | – | – |
| O=c1c2c(oc3ccc(Cl)cc13)-c1ccccc1OCCCO2 | 0.077 µM | 0.092 µM | 0.045 µM | 0.06 µM | 0.106 µM | > 0.609 µM | > 0.609 µM | 0.075 µM (≈ 0.0247 µg/mL) | 0.051 µM (≈ 0.0168 µg/mL) | 0.03 µM (≈ 0.00986 µg/mL) | 0.03 µM (≈ 0.00986 µg/mL) | – | – | – | – | – |
| O=c1c2c(oc3ccccc13)-c1ccccc1OCCCCCO2 | 0.186 µM | 0.155 µM | 0.063 µM | 0.062 µM | 0.077 µM | > 0.621 µM | > 0.621 µM | 0.159 µM (≈ 0.0513 µg/mL) | 0.154 µM (≈ 0.0496 µg/mL) | 0.059 µM (≈ 0.019 µg/mL) | 0.089 µM (≈ 0.0287 µg/mL) | – | – | – | – | – |

— ChEMBL document CHEMBL3392983, “Synthesis, antimicrobial activity and molecular docking of novel tetracyclic scaffolds incorporating a flavonoid framework with medium sized oxygen heterocycles” (2015)
